Measured values as given in PubChem BioAssay (NCI).
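Results reflect a 48-hour exposure of cells in 96-well plates to compound at five concentrations. TGI is the concentration that stops growth completely.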

What was measured:
Assay in all cases: NCI tumour cell line growth inhibition, 48 h
K-562 leukemia = system: K-562 leukemia
HOP-92 NSCLC = system: HOP-92 NSCLC
TK-10 renal = system: TK-10 renal
MCF7 breast = system: MCF7 breast
A549 NSCLC = system: A549 NSCLC
HS 578T breast = system: HS 578T breast
HCT-15 colon = system: HCT-15 colon
CAKI-1 renal = system: CAKI-1 renal
UACC-62 melanoma = system: UACC-62 melanoma
DU-145 prostate = system: DU-145 prostate
SN12C renal = system: SN12C renal
HCT-116 colon = system: HCT-116 colon
A498 renal = system: A498 renal

Row | SMILES | TGI (K-562 leukemia) [µM] | TGI (HOP-92 NSCLC) [µM] | TGI (TK-10 renal) [µM] | TGI (MCF7 breast) [µM] | TGI (A549 NSCLC) [µM] | TGI (HS 578T breast) [µM] | TGI (HCT-15 colon) [µM] | TGI (CAKI-1 renal) [µM] | TGI (UACC-62 melanoma) [µM] | TGI (DU-145 prostate) [µM] | TGI (SN12C renal) [µM] | TGI (HCT-116 colon) [µM] | TGI (A498 renal) [µM]
1 | CCCCCCCCCCCCCCCCNc1nc(=O)n(C2CC(O)C(COP(=O)(O)OC3CC(n4cc(F)c(=O)[nH]c4=O)OC3CO)O2)cc1F (centres undefined) | 24.1 | > 59.5 | > 100 | 97.1 | 26.4 | > 100 | 50.9 | > 100 | 17.3 | > 70.6 | > 100 | > 100 | > 89.6
2 | CC(C)(C)C1CC[C@H](O)[C@H]([C@@H](O)CC2CC(=O)N(c3ccccc3)C(=O)C2)C1 (some centres undefined) | > 100 | > 100 | > 100 | > 100 | > 100 | > 100 | > 100 | > 100 | 74.9 | > 100 | > 100 | > 100 | > 100
3 | CCC(=O)NC(NNS(=O)(=O)c1ccc(C)cc1)(C(F)(F)F)C(F)(F)F | > 100 | > 100 | > 100 | > 100 | > 100 | > 100 | > 100 | > 100 | > 100 | > 100 |  | > 100 | > 100
4 | COc1ccc(/C=C2\CC3C4CC=C5C[C@@H](N6CCCC6)CC[C@]5(C)C4CC[C@]3(C)[C@H]2O)cc1OC (some centres undefined) | 37.5 | 23.4 | 19.9 | 14.8 | 17.6 | 26.9 | 14.2 | 16.7 | 16 | 22.4 | 18.3 | 15.8 | 17
5 | N#Cc1ccc(N=NN2CCCC2)cc1 | > 100 | > 100 | > 100 | > 100 |  | > 100 | > 100 | > 100 | > 100 | > 100 | > 100 | > 100 | > 100
6 | ON[C@@H]1C=C[C@H](n2cnc3c(NC4CC4)ncnc32)C1 | > 100 | > 100 | > 100 | > 100 | > 100 | > 100 | > 100 | > 100 | > 100 | > 100 | > 100 | > 100 | > 100
7 | COc1ccccc1OC/C(N=Cc1cccnc1)=N/NC(=O)c1ccncc1 | > 100 | > 100 | > 100 | > 100 | > 100 | > 100 | > 100 | > 100 | > 100 | > 100 |  | > 100 | > 100
8 | COc1cc(C)cc2c1C(=O)C(NC(C)=O)=CC2=O | > 100 | > 100 | > 100 | > 100 | > 100 | > 100 | > 100 | > 100 | > 100 | > 100 | > 100 | > 100 | > 100
9 | CC(C)(CO)CNc1nc(N)nc(Cl)c1C=O | > 100 | 77.3 | > 100 | > 100 | > 100 | 70.7 | 45 | 52.6 | 32.6 | > 100 | 55.3 | 40.1 | > 100
10 | CC(Oc1ccc(Cl)cc1Cl)C(=O)NN1C(=O)CC(=O)NC1=S (centres undefined) | > 100 | > 100 | > 100 | > 100 | > 100 | > 100 | > 100 | > 100 | > 100 | > 100 | > 100 | > 100 | > 100
11 | CSCCCNC(=O)c1csc(-c2csc(CCNC(=O)CNC(=O)OC(C)(C)C)n2)n1 | > 100 | > 100 | > 100 | > 100 | > 100 | > 100 | > 100 | > 100 | > 100 | > 100 | > 100 | > 100 | > 100
12 | CN(C)Cc1cc(C(=O)/C=C/c2ccc(Cl)cc2Cl)cc(CN(C)C)c1O | 5.29 | 8.55 | 24.2 | 15.3 | 11.9 | 15.8 | 14.6 | 5.61 |  | 16.7 | 6.96 | 11.7 | 8.49
13 | COC(=O)C1=CCC[C@H]2[C@@]1(COC(C)=O)CC[C@@H](C)[C@]2(C)CC(=O)c1ccoc1 |  | 37.8 | > 50 | > 50 | > 50 | > 50 | 49.5 | > 50 | 20.1 | > 50 | > 50 | 30.4 | > 50
